This note sets out measurements from patent publication US20130040935A1, “CYCLIC KETO-ENOLS FOR THERAPY” (BAYER INTELLECTUAL PROPERTY GMBH, priority 2010, published 2013).

Like-named read-outs stand apart in the source and are kept apart here.

In one assay the test system is MCF7. Briefly: Cell proliferation assay (CellTiter-Glo, 96 h), MCF7. In kind it is cell-based. The note with it: Homo sapiens. As for the experimental part: In accordance with the invention, the substances were tested in cell-based assays for the ability of the substances of inhibiting tumour cell proliferation after a 96-hour incubation with the substance. Cell viability was tested using the CellTiter-Glo® luminescent cell viability assay (Promega). The cells were sown at a density of 2000-5000 cells/well (depending on the cell line) in 100 μl growth medium on 96-well microtitre plates. For each cell line examined, cells were sown on a separate plate to determine the luminescence at t=0 hours and t=96 hours. After overnight incubation at 37° C., the luminescence values for the t=0 samples were determined. The dose plates for the t=96 hours points in time were treated with substances diluted with growth medium. The cells were then incubated at 37° C. for 96 hours, and the luminescence values for the t=96 hours sample were then determined. For data analysis, the t=0 values were subtracted from the t=96 hour values for treated and untreated samples. The differences in luminescence in percent between substance-treated samples and control values were used to determine the growth inhibition in percent.
The substances were tested in the following cell lines which represent the stated indications in an exemplary manner: […]
In general terms: In ATP-based viability assays light output follows the ATP content of the culture.

The target in assay [1] is human ACC2 (acetyl-coenzyme A carboxylase 2) (Homo sapiens, UniProt O00763). In words: Human ACC2 enzyme assay, Assay B2 (ADP-Glo).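 Note: human ACC2 activity read as ADP product, detected by luciferase glow luminescence after residual ATP removal, enzyme near 2 ng/µl in linear range, detection steps at 22 °C.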 In general terms: ADP-Glo first removes unused ATP, then detects ADP through luciferase.
human ACC2 (acetyl-coenzyme A carboxylase 2), sequence (O00763 27-2458 limits assumed): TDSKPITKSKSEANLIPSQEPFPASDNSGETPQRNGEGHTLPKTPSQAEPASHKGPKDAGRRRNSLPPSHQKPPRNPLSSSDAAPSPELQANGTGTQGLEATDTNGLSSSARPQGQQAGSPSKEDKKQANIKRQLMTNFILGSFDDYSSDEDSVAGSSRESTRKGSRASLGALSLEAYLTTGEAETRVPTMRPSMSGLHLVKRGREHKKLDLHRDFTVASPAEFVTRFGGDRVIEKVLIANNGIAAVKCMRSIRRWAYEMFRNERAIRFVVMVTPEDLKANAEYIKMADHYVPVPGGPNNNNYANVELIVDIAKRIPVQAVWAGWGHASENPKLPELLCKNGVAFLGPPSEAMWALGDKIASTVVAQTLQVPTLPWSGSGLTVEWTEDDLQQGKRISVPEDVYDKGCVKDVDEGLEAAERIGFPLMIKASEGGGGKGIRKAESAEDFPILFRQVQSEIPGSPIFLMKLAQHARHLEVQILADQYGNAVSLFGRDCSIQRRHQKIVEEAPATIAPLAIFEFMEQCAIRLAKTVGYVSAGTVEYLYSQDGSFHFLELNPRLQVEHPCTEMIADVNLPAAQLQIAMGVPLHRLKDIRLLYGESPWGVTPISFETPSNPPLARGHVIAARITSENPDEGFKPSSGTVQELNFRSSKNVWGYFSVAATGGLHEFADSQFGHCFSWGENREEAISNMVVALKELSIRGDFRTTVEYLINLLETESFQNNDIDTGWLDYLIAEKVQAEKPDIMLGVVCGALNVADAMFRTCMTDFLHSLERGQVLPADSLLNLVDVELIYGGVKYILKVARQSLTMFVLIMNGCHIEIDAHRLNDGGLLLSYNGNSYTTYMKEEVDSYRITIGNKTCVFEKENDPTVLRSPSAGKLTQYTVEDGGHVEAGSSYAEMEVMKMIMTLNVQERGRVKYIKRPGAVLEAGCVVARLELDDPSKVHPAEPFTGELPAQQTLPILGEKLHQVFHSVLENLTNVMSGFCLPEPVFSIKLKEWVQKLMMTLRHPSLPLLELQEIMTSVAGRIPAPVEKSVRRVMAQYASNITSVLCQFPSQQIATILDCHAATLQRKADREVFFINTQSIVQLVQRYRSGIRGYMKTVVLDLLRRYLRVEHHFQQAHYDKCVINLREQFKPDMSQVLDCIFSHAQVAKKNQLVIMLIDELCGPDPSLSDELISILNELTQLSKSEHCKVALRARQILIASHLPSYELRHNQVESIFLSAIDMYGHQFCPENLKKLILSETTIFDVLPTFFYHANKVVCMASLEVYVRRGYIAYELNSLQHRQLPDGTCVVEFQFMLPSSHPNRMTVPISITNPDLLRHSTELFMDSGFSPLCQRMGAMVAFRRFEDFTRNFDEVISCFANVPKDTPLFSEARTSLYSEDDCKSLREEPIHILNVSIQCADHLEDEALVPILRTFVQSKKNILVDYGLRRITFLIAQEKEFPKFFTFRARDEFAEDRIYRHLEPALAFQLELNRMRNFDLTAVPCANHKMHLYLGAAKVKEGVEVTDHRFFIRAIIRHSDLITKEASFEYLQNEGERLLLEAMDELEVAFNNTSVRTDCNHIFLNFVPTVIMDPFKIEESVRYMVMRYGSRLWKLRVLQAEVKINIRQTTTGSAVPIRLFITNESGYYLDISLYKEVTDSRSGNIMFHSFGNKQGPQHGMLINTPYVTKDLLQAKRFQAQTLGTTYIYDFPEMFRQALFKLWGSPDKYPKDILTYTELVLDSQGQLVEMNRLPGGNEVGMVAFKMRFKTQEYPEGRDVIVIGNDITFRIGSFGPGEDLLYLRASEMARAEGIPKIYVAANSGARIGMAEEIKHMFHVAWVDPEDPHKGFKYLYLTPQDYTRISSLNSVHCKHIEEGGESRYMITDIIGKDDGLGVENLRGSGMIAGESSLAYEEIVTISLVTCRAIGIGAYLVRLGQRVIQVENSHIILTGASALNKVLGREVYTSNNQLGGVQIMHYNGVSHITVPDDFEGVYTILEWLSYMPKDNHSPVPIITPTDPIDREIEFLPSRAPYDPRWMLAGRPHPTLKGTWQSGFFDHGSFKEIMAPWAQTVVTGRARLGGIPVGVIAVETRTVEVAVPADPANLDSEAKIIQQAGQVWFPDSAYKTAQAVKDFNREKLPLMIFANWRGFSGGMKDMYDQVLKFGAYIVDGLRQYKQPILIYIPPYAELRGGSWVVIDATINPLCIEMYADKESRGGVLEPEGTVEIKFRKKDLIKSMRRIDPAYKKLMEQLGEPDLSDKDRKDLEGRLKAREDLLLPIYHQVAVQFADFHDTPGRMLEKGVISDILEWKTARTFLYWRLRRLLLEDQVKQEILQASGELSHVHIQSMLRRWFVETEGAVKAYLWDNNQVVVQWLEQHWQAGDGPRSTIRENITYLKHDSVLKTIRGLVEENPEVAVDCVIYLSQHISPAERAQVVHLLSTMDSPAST
The target in assay [2] is T1, human ACC1 (acetyl-coenzyme A carboxylase alpha transcript variant 1) (Homo sapiens, UniProt Q13085).
T1 construct: FLAG (C); made in house; host or cells: baculovirus-infected insect cells (Hi5)
In words: Human ACC1 enzyme assay, Assay B1 (ADP-Glo). In kind it is biochemical.

Where [3] appears, read: MCF7, Table 9a, 96-hour incubation.
[4] abbreviates: Assay B1, read-out: ACC 1 (=B1) IC50.
Setting [5] is: Assay B1, ADP-Glo, read-out: ACC 1 (=B1) IC50.
Setting [6] is: MCF7, Table 7, 96-hour incubation.

As to `Cc1cc(C)c(-c2ccc(Cl)cc2)cc1C1=C(O)C(C)(C)CCC1=O` [7-4, 2-(4′-chloro-4,6-dimethylbiphenyl-3-yl)-3-hydroxy-4,4-dimethylcyclohex-2-en-1-one], the half-maximal inhibitory concentration (IC50) (as a rule, the point on the concentration scale where inhibition reaches its midpoint) was 2630 nM with MCF7 (setting [3]), more than 20000 nM in assay [1] and 7110 nM in assay [2] (setting [4]).
Regarding `Cc1ccc(-c2ccc(Cl)cc2Cl)cc1C1=C(O)C2(CCCCC2)CC1=O` [6-2, 3-(2′,4′-dichloro-4-methylbiphenyl-3-yl)-4-hydroxyspiro[4.5]dec-3-en-2-one], the values for the IC50 (in the assay on MCF7 (setting [3]); in assay [1]; in assay [2] (setting [4])) were 194 nM, 3230 nM and 263 nM, respectively.
Take `COCC1CCC2(CC1)OC(=O)C(c1c(C)ccc(-c3ccc(Cl)cc3)c1C)=C2O` (stereo not shown) [2-17, 3-(4′-chloro-2,4-dimethylbiphenyl-3-yl)-4-hydroxy-8-(methoxymethyl)-1-oxaspiro[4.5]dec-3-en-2-one]: the IC50 in the assay on MCF7 (MCF7 cells) was 400 nM; in assay [1], 1180 nM; in assay [2] (setting [5]), 58 nM.
Regarding `CO[C@H]1CC[C@]2(CC1)NC(=O)C(c1cc(-c3ccc(F)c(Cl)c3)ccc1C)=C2O` [1-43, (5s,8s)-3-(3′-chloro-4′-fluoro-4-methylbiphenyl-3-yl)-4-hydroxy-8-methoxy-1-azaspiro[4.5]dec-3-en-2-one], the IC50 in the assay on MCF7 (setting [6]) was 1220 nM; in assay [1], more than 20000 nM; in assay [2] (setting [4]), 4930 nM.
As to `Cc1ccc(-c2ccc(Cl)cc2)cc1C1=C(O)C2CSCCN2C1=O` (stereo not shown) [1-21, 7-(4′-chloro-4-methylbiphenyl-3-yl)-8-hydroxy-1,3,4,8a-tetrahydro-6H-pyrrolo[2,1-c][1,4]thiazin-6-one], the IC50 in the assay with MCF7 (setting [6]) was determined as 392 nM; in assay [1], 10300 nM; in assay [2], 630 nM.
Regarding `Cc1cc(C)c(-c2ccc(Cl)cc2)cc1C1=C(O)C2(CCCOC2)NC1=O` (stereo not shown) [1-8, 3-(4′-chloro-4,6-dimethylbiphenyl-3-yl)-4-hydroxy-7-oxa-1-azaspiro[4.5]dec-3-en-2-one], the values for the half-inhibitory concentration (IC50) (in the assay with MCF7 (setting [6]); in assay [1]; in assay [2] (setting [4])) were 191 nM, more than 20000 nM and 5810 nM, respectively.
In the case of `Cc1cc(C)c(-c2ccc(Cl)cc2)cc1C1=C(O)CC(C)(C)CC1=O` [7-3, 2-(4′-chloro-4,6-dimethylbiphenyl-3-yl)-3-hydroxy-5,5-dimethylcyclohex-2-en-1-one], the 50% inhibitory concentration (IC50) in the assay on MCF7 (setting [3]) stood at 974 nM; in assay [1], 13000 nM; in assay [2] (setting [4]), 1740 nM.
Turning to `Cc1ccc(-c2ccc(Cl)cc2)cc1C1=C(O)C(C)(C)C(C)(C)NC1=O` [9-14, 3-(4′-chloro-4-methylbiphenyl-3-yl)-4-hydroxy-5,5,6,6-tetramethyl-5,6-dihydropyridin-2(1H)-one], the half-maximal inhibitory concentration (IC50) in the assay on MCF7 (MCF7 cells) was 1460 nM; in assay [1], more than 20000 nM; in assay [2] (setting [4]), 6470 nM.
As for `Cc1cc(C)c(-c2ccc(Cl)cc2)c(C)c1C1=C(O)C2(CCCCC2)OC1=O` [2-6, 3-(4′-chloro-2,4,6-trimethylbiphenyl-3-yl)-4-hydroxy-1-oxaspiro[4.5]dec-3-en-2-one], the figures for the concentration for half-maximal inhibition (IC50) (in the assay on MCF7 (MCF7 cells); in assay [1]; in assay [2] (setting [5])) were 724 nM, 5420 nM and 6850 nM, respectively.
Take `Cc1ccc(-c2ccc(Cl)cc2)c(C)c1C1=C(O)C2(CCCOC2)NC1=O` (stereo not shown) [1-10, 3-(4′-chloro-2,4-dimethylbiphenyl-3-yl)-4-hydroxy-7-oxa-1-azaspiro[4.5]dec-3-en-2-one]: the results for the IC50 (in the assay on MCF7 (setting [6]); in assay [1]; in assay [2]) were 1300 nM, 9460 nM and 500 nM, respectively.
In the case of `COCCC1CCCC2(C1)OC(=O)C(c1cc(-c3ccc(Cl)cc3)ccc1C)=C2O` (stereo not shown) [2-18, 3-(4′-chloro-4-methylbiphenyl-3-yl)-4-hydroxy-7-(2 methoxyethyl)-1-oxaspiro[4.5]dec-3-en-2-one], the results for the half-inhibitory concentration (IC50) (in the assay on MCF7 (MCF7 cells); in assay [1]; in assay [2] (setting [5])) were 935 nM, 12200 nM and 276 nM, respectively.
With `Cc1ccc(-c2ccc(Cl)cc2)cc1C1=C(O)C(C)(C)OC1=O` [2-3, 3-(4′-chloro-4-methylbiphenyl-3-yl)-4-hydroxy-5,5-dimethylfuran-2(5H)-one], the IC50 with MCF7 (MCF7 cells) is 1060 nM; in assay [1], more than 20000 nM; in assay [2], 3730 nM.
For the molecule `Cc1cc(C)c(-c2ccc(Cl)cc2)c(C)c1C1=C(O)C2(CCCCC2)CC1=O` [6-9, 3-(4′-chloro-2,4,6-trimethylbiphenyl-3-yl)-4-hydroxyspiro[4.5]dec-3-en-2-one], the results for the concentration for half-maximal inhibition (IC50) (in the assay on MCF7 (setting [3]); in assay [1]; in assay [2]) were 1520 nM, 2120 nM and not below 20000 nM, respectively.
As to `Cc1cc(C)c(-c2ccc(Cl)cc2)c(C)c1C1=C(O)[C@]2(CC[C@@]3(CCCO3)CC2)OC1=O` [2-31, (5r,8s)-3-(4′-chloro-2,4,6-trimethylbiphenyl-3-yl)-4-hydroxy-1,9-dioxadispiro[4.2.4.2]tetradec-3-en-2-one], the IC50 was determined as 490 nM in the assay with MCF7 (MCF7 cells), 76 nM in assay [1] and 2000 nM in assay [2].
With `COCC1CCCC2(C1)NC(=O)C(c1cc(-c3ccc(Cl)cc3)ccc1Cl)=C2O` (stereo not shown) [1-52, 3-(4,4′-dichlorobiphenyl-3-yl)-4-hydroxy-7-(methoxymethyl)-1-azaspiro[4.5]dec-3-en-2-one], the 50% inhibitory concentration (IC50) worked out at 739 nM with MCF7 (setting [6]), 16000 nM in assay [1] and 1790 nM in assay [2].
`Cc1cc(C)c(-c2ccc(Cl)cc2)cc1C1=C(O)C2(CCCCC2)SC1=O` [3-3, 3-(4′-chloro-4,6-dimethylbiphenyl-3-yl)-4-hydroxy-1-thiaspiro[4.5]dec-3-en-2-one]: the figures for the IC50 (in the assay with MCF7 (setting [3]); in assay [1]; in assay [2] (setting [4])) were 575 nM, 1150 nM and 265 nM, respectively.
Take `Cc1ccc(-c2ccc(Cl)cc2)cc1C1=C(O)C2(CCCCCC2)CC1=O` [6-7, 3-(4′-chloro-4-methylbiphenyl-3-yl)-4-hydroxyspiro[4.6]undec-3-en-2-one]: the results for the IC50 (with MCF7 (setting [3]); in assay [1]; in assay [2] (setting [4])) were 338 nM, 7190 nM and 1030 nM, respectively.
Turning to `COC1CCCC2(C1)OC(=O)C(c1c(C)cc(C)c(-c3ccc(Cl)cc3)c1C)=C2O` (stereo not shown) [2-12, 3-(4′-chloro-2,4,6-trimethylbiphenyl-3-yl)-4-hydroxy-7-methoxy-1-oxaspiro[4.5]dec-3-en-2-one], the IC50 worked out at 1240 nM with MCF7 (MCF7 cells), 3420 nM in assay [1] and 4260 nM in assay [2].
As for `COC1CCC2(C1)NC(=O)C(c1c(C)ccc(-c3ccc(Cl)cc3)c1C)=C2O` (stereo not shown) [1-48, 3-(4′-chloro-2,4-dimethylbiphenyl-3-yl)-4-hydroxy-7-methoxy-1-azaspiro[4.4]non-3-en-2-one], the results for the concentration for half-maximal inhibition (IC50) (with MCF7 (setting [6]); in assay [1]; in assay [2]) were 852 nM, 10400 nM and 1560 nM, respectively.
On to `Cc1ccc(-c2ccc(Cl)cc2)cc1C1=C(O)C2(CCCCCCC2)NC1=O` [1-23, 3-(4′-chloro-4-methylbiphenyl-3-yl)-4-hydroxy-1-azaspiro[4.7]dodec-3-en-2-one], for which the IC50 with MCF7 (setting [6]) amounted to 262 nM; in assay [1] it was 2330 nM; in assay [2] (setting [4]), 459 nM.
Consider `COCCC1CCC2(CC1)NC(=O)C(c1c(C)ccc(-c3ccc(Cl)cc3)c1C)=C2O` (stereo not shown) [1-57, 3-(4′-chloro-2,4-dimethylbiphenyl-3-yl)-4-hydroxy-8-(2-methoxyethyl)-1-azaspiro[4.5]dec-3-en-2-one], for which the figures for the IC50 (in the assay on MCF7 (setting [6]); in assay [1]; in assay [2]) were 250 nM, 1680 nM and 1290 nM, respectively.
As for `Cc1ccc(-c2ccc(C)c(C3=C(O)C4(CCCCC4)NC3=O)c2)cc1` [1-13, 3-(4,4′-dimethylbiphenyl-3-yl)-4-hydroxy-1-azaspiro[4.5]dec-3-en-2-one], the IC50 with MCF7 (setting [6]) was 410 nM; in assay [1], more than 20000 nM; in assay [2] (setting [4]), 216 nM.
With `Cc1ccc(-c2ccc(C)c(C3=C(O)C4(CCCCC4)CC3=O)c2)cc1` [6-1, 3-(4,4′-dimethylbiphenyl-3-yl)-4-hydroxyspiro[4.5]dec-3-en-2-one], the IC50 was 545 nM with MCF7 (setting [3]), 19700 nM in assay [1] and 411 nM in assay [2] (setting [4]).
Regarding `Cc1ccc(-c2ccc(F)cc2)cc1C1=C(O)C2(CCC(OCC(F)(F)F)CC2)NC1=O` (stereo not shown) [1-32, 3-(4′-fluoro-4-methylbiphenyl-3-yl)-4-hydroxy-8-(2,2,2-trifluoroethoxy)-1-azaspiro[4.5]dec-3-en-2-one], the half-maximal inhibitory concentration (IC50) in the assay on MCF7 (setting [6]) stood at 107 nM; in assay [1], 19000 nM; in assay [2] (setting [4]), 516 nM.
As for `Cc1cc(C)c(-c2ccc(Cl)cc2)cc1C1=C(O)C2(CCCCCC2)OC1=O` [2-43, 3-(4′-chloro-4,6-dimethylbiphenyl-3-yl)-4-hydroxy-1-oxaspiro[4.6]undec-3-en-2-one], the IC50 in the assay on MCF7 (MCF7 cells) was determined as 263 nM; in assay [1], 737 nM; in assay [2], 168 nM.
Take `O=C1C(c2cc(-c3ccc(Cl)cc3)ccc2Cl)C(=O)N2CCCCN12` [8-2, 2-(4,4′-dichlorobiphenyl-3-yl)tetrahydro-1H-pyrazolo[1,2-a]pyridazine-1,3(2H)-dione]: the IC50 in the assay on MCF7 (setting [3]) came to 878 nM; in assay [2], 401 nM.
The like results for `Cc1ccc(-c2ccc(Cl)cc2)cc1C1=C(O)CC(C)(C)CC1=O` [7-5, 2-(4′-chloro-4-methylbiphenyl-3-yl)-3-hydroxy-5,5-dimethylcyclohex-2-en-1-one] were, in that order, 992 nM and 906 nM.
